Assay results: US5045543A, “5-amino or substituted amino 1,2,3-triazoles useful as antimetastatic agents” (Merck & Co., Inc., priority 1989, dated 1991)
Entries after “also recorded” stand apart in the source; their conditions may differ.

Assays:
LTA4 hydrolase = experiment: Direct inhibition of LTA4 hydrolase; format: biochemical
PRPP synthetase = experiment: Direct inhibition of PRPP synthetase in vitro; format: biochemical; conditions: in vitro studies
macrophages = experiment: LTC4 and PGE2 production and lysosomal enzyme release in macrophages; format: cell-based; conditions: 1 μg/ml
5-lipoxygenase = experiment: Direct inhibition of 5-lipoxygenase; format: biochemical
[1] = test system: Maden Darby Bovine Kidney (MDBK) cells; experiment: 3H-Hypoxanthine uptake (incorporation) into MDBK cells; format: cell-based; conditions: 1.0 μg/ml; for inhibition at 1 µg/mL: Bos taurus, MDBK
Method: Compound A and analogs are capable of inhibiting nucleotide biosynthesis in a variety of mammalian cell types.
Confluent cells were incubated in Eagles Minimal Essential media for 2.5 hours, then incubated with Phosphate buffered saline +Ca +Mg for 30 minutes, and then they were incubated with or without 1 μg/ml Compound A for 15 minutes. Media containing 100 μM 8-^3 H-hypoxanthine with or without drug was incubated for the time shown with the cells after which they were quenched by immersion in ice cold buffer. The DPM measurements were made on aliquots of neutralized perchloric acid supernatants.

MDBK cells = experiment: Inhibition of the growth of MDBK cells; format: cell-based, Bovine; conditions: for inhibition at 1 µg/mL / inhibition at 2 µg/mL: Bos taurus, MDBK
Method: (§1) The inhibition of PRPP biosynthesis by Compound A and analogs supported the claimed use of the compounds as antiproliferative agents, since this inhibition should prevent all de novo and salvage biosynthesis of purine and pyrimidine nucleotides. […] The data from NHEK's is particularly important since it is the overproliferation of these cells that occurs in psoriasis.
(§2) In these experiments Murine keratinocyte transformed cell line PAPp26 was cultured in Dulbecco's modified Eagle's medium with 10% fetal calf serum at 37° C., 5% CO2. Each well of a 96 well plate was seeded with 2000 cells in 200 μl of each drug dilution in duplicate. A plate was stopped and fixed for each time point, stained with Giemsa and then read in a Titertek plate reader at 650 nm, and the absorbances were calibrated with known cell numbers on control plates. NHEK's were obtained from Clonetics Corporation at the secondary stage. Antiproliferative assays were done as for the murine keratinocytes. Media (KGM) without serum was supplied by Clonetics also. Normal Human Fibroblasts and MDBK cells were grown under the same conditions except that MDBK cells were grown at 41° C.

[2] = test system: pig skin epidermal basal cells (keratinocytes); experiment: UV induced hyperproliferation in pig skin in vivo (topical antiproliferative activity); conditions: for effect on uv induced hyperproliferation: daily topical application; for LI (labelling index): uv exposed Gel #1 control 20.8, normal 7.6
Method: The topical antiproliferative activities, along with in vitro antiproliferative activities against human keratinocytes and fibroblasts, provide the biological data in support of the claimed utility:
In one experiment, a 20 kg pig was sedated and multiple areas of clipped skin were exposed to uv radiation sufficient to provoke a moderate hyperproliferative response within several days of exposure. On days 0, 1, 2 and 3 replicate irradiated sites were treated topically with Compound A in several vehicles or solvents. Topical preparations included a 2% drug in Gel #1, a combination of isopropyl myristate:Crodamol:ethanol, 1:1:2, or DMSO. The hyperproliferative response of the skin to uv was assessed on day 4 by injecting ^3 H-thymidine intradermally, and, 1 hour later, removing the sites by punch biopsy and processing the samples for autoradiography. Such autoradiographs indicate the number of epidermal cells in S phase synthesizing DNA and this is a common tool used by dermatologists to assess inhibition of proliferation in vivo. A single injection of methotrexate, 4 hours prior to ^3 H-thymidine injection was used as a positive control for inhibition of DNA synthesis. A labelling index, L.I., which is the percent of the total number of epidermal basal cells (keratinocytes) counted showing label incorporation. Four days after exposure to uv, the L.I. of pig skin increased from 7.6% to 20.8% (normal human skin ca. 2%, psoriatic lesions ca. 25%, for comparison).

intact pig skin = experiment: Labelled thymidine incorporation into intact pig skin; conditions: in vivo
[3] = test system: Normal Human Epidermal Keratinocytes (NHEK); experiment: Inhibition of growth of Normal Human Epidermal Keratinocytes (NHEK); format: cell-based; conditions: for inhibition at 0.5 µg/mL / inhibition at 1 µg/mL / inhibition at 2 µg/mL: Homo sapiens, NHEK
Method: as §1, §2

[4] = test system: keratinocyte proliferation; experiment: Keratinocyte proliferation measured by metaphase arrest with colchicine; format: in vivo, pig

NC(=O)c1nnn(Cc2cc(Cl)c(C(=O)c3ccc(Cl)cc3)c(Cl)c2)c1N [Compound A, 5-amino-1-(4-(4-chlorobenzoyl)-3,5-dichlorobenzyl)-1,2,3-triazole-4-carboxamide]
direct inhibition of LTA4 hydrolase (LTA4 hydrolase): no evidence of direct inhibition | direct inhibition of PRPP synthetase (PRPP synthetase): no direct inhibition of the enzyme occurred | inhibition of LTC4 production (macrophages): inhibit | inhibition of PGE2 production (macrophages): inhibit | inhibition of lysosomal enzyme release (macrophages): inhibit | direct inhibition of 5-lipoxygenase (5-lipoxygenase): no evidence of direct inhibition | 3H-hypoxanthine incorporation into MDBK cells ([1]; Eagles Minimal Essential media): substantially reduced | 3H-Hypoxanthine Uptake, DPM ([1]; 10 min, control 87000): 36000 DPM | 3H-Hypoxanthine Uptake, DPM ([1]; 20 min, control 140000): 40000 DPM | 3H-Hypoxanthine Uptake, DPM ([1]; 30 min, control 190000): 40000 DPM | inhibition at 1 µg/mL ([1]; 10 min): 59% | inhibition at 1 µg/mL ([1]; 20 min): 71% | inhibition at 1 µg/mL ([1]; 30 min): 79% | MDBK growth, # Cells × 10^6 - # Cells Seeded (MDBK cells; 1.0 μg/ml, 1 day, control 1.40): 0 × 10^6 | MDBK growth, # Cells × 10^6 - # Cells Seeded (MDBK cells; 1.0 μg/ml, 3 days, control 4.86): 3.12 × 10^6 | MDBK growth, # Cells × 10^6 - # Cells Seeded (MDBK cells; 2.0 μg/ml, 1 day, control 1.40): 0 × 10^6 | MDBK growth, # Cells × 10^6 - # Cells Seeded (MDBK cells; 2.0 μg/ml, 3 days, control 4.86): 0 × 10^6 | inhibition at 1 µg/mL (MDBK cells; 24 h, 1.0 μg/ml, 1 day): 100% | inhibition at 2 µg/mL (MDBK cells; 24 h, 2.0 μg/ml, 1 day): 100% | inhibition at 1 µg/mL (MDBK cells; 72 h, 1.0 μg/ml, 3 days): 36% | inhibition at 2 µg/mL (MDBK cells; 72 h, 2.0 μg/ml, 3 days): 100% | inhibition of growth of MDBK cells (MDBK cells; approximately 1.0 μg/ml): substantial inhibition | inhibition of uv induced hyperproliferation in pig skin ([2]; 2% formulation in Gel #1, topical): inhibits completely | effect on uv induced hyperproliferation ([2]; Crodamol): less effective | effect on uv induced hyperproliferation ([2]; DMSO): no effect | effect on uv induced hyperproliferation ([2]; Gel #1): dramatically reduced the uv induced hyperproliferation | topical antiproliferative activity ([2]; effects dependent upon vehicle): active topically as an antiproliferative; also recorded: Topical activity against keratinocyte proliferation has been demonstrated | UV induced hyperproliferation, % Inhibition ([2]; topical, Crodamol): 29% | Labelled Cells ([2]; topical, Crodamol, of 963 basal cells counted): 165 | LI (labelling index) ([2]; topical, Crodamol): 17.0% | UV induced hyperproliferation, % Inhibition ([2]; topical, DMSO): 0% | Labelled Cells ([2]; topical, DMSO, of 744 basal cells counted): 150 | LI (labelling index) ([2]; topical, DMSO): 20.1% | UV induced hyperproliferation, % Inhibition ([2]; topical, Gel #1): 100% | inhibition of proliferation compared with injected methotrexate ([2]; topical, Gel #1): comparable to that for injected methotrexate | Labelled Cells ([2]; topical, Gel #1, of 1020 basal cells counted): 57 | LI (labelling index) ([2]; topical, Gel #1): 5.6% | inhibition of labelled thymidine incorporation into intact pig skin (intact pig skin): inhibits | NHEK growth, ABS-background (650 nm) ([3]; 0.5 μg/ml, day 4, control .090): .085 | NHEK growth, ABS-background (650 nm) ([3]; 0.5 μg/ml, day 5, control .190): .115 | NHEK growth, ABS-background (650 nm) ([3]; 0.5 μg/ml, day 7, control .390): .190 | NHEK growth, ABS-background (650 nm) ([3]; 1.0 μg/ml, day 4, control .090): .040 | NHEK growth, ABS-background (650 nm) ([3]; 1.0 μg/ml, day 5, control .190): .050 | NHEK growth, ABS-background (650 nm) ([3]; 1.0 μg/ml, day 7, control .390): .120 | NHEK growth, ABS-background (650 nm) ([3]; 2.0 μg/ml, day 4, control .090): .005 | NHEK growth, ABS-background (650 nm) ([3]; 2.0 μg/ml, day 5, control .190): .010 | NHEK growth, ABS-background (650 nm) ([3]; 2.0 μg/ml, day 7, control .390): .050 | inhibition at 0.5 µg/mL ([3]; 96 h, 0.5 μg/ml, day 4): 6% | inhibition at 1 µg/mL ([3]; 96 h, 1.0 μg/ml, day 4): 56% | inhibition at 2 µg/mL ([3]; 96 h, 2.0 μg/ml, day 4): 94% | inhibition at 0.5 µg/mL ([3]; 120 h, 0.5 μg/ml, day 5): 40% | inhibition at 1 µg/mL ([3]; 120 h, 1.0 μg/ml, day 5): 74% | inhibition at 2 µg/mL ([3]; 120 h, 2.0 μg/ml, day 5): 95% | inhibition at 0.5 µg/mL ([3]; 168 h, 0.5 μg/ml, day 7): 51% | inhibition at 1 µg/mL ([3]; 168 h, 1.0 μg/ml, day 7): 70% | inhibition at 2 µg/mL ([3]; 168 h, 2.0 μg/ml, day 7): 87% | inhibition of growth of NHEK ([3]; approximately 1.0 μg/ml): substantial inhibition | inhibition of keratinocyte proliferation [4]: inhibits
